# Data reported in publication PMC4979471 (Cell Death Discovery, 2015).
# Like-named read-outs stand apart in the source and are kept apart here.
# Tests used:
# Assay in all cases: Kinase selectivity, P33-radiolabeled assay
# Type in all cases: biochemical
# Details in all cases: 10 μM ATP
# CAMK2b = biological target: T1, CAMK2b (Homo sapiens, UniProt Q13554)
# T1 construct: purchased Reaction Biology Corp
# Summary of the method: (§1)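 Duplicate single-concentration testing used 10 μM compound. The ATP concentration was also 10 μM.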
# FMS = biological target: T2, FMS (Homo sapiens, UniProt P07333)
# T2 construct: purchased Reaction Biology Corp
# T2 sequence (P07333 20-972): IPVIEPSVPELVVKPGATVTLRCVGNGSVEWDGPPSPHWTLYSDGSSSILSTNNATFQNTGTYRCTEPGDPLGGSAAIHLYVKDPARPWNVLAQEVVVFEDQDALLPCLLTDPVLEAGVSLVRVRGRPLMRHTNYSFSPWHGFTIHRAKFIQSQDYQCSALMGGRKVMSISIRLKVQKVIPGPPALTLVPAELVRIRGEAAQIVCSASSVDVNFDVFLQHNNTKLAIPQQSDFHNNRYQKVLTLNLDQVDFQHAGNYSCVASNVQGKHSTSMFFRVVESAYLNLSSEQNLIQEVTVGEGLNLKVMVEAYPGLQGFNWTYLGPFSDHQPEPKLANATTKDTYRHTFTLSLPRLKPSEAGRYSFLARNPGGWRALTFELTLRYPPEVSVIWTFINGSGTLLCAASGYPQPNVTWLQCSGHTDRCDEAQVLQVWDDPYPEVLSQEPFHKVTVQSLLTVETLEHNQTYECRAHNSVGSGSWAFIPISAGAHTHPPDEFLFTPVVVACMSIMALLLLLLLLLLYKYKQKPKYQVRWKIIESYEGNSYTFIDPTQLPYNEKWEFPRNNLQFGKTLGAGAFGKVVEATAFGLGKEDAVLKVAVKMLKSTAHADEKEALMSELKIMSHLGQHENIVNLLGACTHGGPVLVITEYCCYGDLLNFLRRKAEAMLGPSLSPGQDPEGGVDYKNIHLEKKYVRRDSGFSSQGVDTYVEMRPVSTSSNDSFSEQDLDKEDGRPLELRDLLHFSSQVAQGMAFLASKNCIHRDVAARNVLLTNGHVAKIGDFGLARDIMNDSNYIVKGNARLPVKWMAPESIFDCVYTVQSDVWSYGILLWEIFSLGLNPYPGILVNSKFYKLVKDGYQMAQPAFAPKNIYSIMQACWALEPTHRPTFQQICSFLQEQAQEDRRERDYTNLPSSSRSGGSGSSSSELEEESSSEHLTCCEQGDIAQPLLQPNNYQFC
# Summary of the method: as §1
# MARK2/PAR-1Ba = biological target: T3, MARK2/PAR-1Ba (Homo sapiens, UniProt Q7KZI7)
# T3 construct: purchased Reaction Biology Corp
# T3 sequence (Q7KZI7 whole entry): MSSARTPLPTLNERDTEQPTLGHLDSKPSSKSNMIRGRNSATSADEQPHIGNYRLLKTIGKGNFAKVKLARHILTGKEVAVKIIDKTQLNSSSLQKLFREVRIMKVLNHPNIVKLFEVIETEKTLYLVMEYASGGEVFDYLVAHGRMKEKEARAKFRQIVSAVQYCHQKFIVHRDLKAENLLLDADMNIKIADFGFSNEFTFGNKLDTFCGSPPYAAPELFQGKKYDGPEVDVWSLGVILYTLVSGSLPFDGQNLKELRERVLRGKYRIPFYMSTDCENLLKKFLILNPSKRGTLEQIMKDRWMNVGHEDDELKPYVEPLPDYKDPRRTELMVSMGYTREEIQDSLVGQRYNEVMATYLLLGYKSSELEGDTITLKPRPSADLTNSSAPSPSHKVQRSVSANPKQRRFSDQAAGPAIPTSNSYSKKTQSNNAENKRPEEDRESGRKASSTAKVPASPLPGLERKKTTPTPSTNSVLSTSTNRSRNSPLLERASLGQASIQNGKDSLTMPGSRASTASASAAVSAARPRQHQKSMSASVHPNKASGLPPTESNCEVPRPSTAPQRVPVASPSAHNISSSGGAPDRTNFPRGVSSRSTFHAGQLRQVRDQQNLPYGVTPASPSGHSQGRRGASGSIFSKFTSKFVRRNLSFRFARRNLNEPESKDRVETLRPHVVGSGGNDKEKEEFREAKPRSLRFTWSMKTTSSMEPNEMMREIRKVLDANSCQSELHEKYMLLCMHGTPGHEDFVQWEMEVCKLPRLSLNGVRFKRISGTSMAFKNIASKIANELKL
# Summary of the method: as §1
# MINK/MINK1 = biological target: T4, MINK/MINK1 (Homo sapiens, UniProt Q8N4C8)
# T4 construct: purchased Reaction Biology Corp
# Summary of the method: as §1
# MYO3b = biological target: T5, MYO3b (Homo sapiens, UniProt Q8WXR4)
# T5 construct: purchased Reaction Biology Corp
# T5 sequence (Q8WXR4 1-1341): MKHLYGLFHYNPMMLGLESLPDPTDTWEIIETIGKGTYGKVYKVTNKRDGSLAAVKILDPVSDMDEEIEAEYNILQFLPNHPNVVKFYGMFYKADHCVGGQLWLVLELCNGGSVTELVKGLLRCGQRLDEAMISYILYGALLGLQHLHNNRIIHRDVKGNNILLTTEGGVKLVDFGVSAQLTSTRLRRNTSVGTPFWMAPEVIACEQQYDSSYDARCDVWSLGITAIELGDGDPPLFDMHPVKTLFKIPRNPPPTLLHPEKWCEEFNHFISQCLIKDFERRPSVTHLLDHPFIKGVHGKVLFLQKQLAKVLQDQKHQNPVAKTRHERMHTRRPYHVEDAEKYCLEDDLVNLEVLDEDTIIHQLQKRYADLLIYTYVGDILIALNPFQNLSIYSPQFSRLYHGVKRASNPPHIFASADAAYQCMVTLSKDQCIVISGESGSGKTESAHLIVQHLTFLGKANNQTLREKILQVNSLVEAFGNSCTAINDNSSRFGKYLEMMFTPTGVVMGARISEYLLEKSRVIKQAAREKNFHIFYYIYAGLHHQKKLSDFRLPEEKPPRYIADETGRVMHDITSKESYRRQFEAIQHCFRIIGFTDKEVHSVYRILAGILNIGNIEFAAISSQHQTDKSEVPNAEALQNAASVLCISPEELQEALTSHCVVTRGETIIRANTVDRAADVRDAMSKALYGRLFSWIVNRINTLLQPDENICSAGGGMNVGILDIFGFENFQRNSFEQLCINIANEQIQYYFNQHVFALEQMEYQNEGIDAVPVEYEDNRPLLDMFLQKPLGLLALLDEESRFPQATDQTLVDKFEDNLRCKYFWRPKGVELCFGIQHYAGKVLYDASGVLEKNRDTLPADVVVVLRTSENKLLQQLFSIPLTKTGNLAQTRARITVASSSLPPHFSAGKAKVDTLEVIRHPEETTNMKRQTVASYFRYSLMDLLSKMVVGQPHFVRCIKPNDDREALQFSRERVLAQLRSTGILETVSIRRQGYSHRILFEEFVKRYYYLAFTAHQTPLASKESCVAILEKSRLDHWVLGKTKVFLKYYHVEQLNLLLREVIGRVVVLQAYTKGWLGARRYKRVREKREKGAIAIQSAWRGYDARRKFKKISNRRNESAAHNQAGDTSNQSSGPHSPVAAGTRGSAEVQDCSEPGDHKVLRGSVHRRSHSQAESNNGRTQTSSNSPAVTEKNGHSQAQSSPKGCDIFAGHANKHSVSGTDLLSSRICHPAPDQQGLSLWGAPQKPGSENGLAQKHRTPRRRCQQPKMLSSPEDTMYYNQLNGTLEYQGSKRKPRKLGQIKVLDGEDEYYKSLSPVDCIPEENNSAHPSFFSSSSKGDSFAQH
# Summary of the method: as §1
# RIPK2 = biological target: T6, RIPK2 (Homo sapiens, UniProt O43353)
# T6 construct: purchased Reaction Biology Corp
# T6 sequence (O43353 whole entry): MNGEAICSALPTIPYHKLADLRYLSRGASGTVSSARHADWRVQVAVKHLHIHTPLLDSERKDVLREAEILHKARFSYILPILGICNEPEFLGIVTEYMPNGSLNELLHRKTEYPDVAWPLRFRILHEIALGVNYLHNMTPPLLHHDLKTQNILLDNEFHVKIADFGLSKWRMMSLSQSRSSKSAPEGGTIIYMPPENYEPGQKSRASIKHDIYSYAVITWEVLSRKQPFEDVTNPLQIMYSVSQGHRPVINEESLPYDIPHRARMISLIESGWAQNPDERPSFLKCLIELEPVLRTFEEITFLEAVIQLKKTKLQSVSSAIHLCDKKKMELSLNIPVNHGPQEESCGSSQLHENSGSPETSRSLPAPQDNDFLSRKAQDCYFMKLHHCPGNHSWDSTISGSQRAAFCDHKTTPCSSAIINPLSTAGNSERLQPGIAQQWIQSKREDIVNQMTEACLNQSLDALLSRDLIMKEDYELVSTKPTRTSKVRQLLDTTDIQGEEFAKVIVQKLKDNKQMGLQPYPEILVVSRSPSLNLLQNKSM
# Summary of the method: as §1
# RSK1 = biological target: T7, RSK1 (Homo sapiens, UniProt Q15418)
# T7 construct: purchased Reaction Biology Corp
# T7 sequence (Q15418 whole entry): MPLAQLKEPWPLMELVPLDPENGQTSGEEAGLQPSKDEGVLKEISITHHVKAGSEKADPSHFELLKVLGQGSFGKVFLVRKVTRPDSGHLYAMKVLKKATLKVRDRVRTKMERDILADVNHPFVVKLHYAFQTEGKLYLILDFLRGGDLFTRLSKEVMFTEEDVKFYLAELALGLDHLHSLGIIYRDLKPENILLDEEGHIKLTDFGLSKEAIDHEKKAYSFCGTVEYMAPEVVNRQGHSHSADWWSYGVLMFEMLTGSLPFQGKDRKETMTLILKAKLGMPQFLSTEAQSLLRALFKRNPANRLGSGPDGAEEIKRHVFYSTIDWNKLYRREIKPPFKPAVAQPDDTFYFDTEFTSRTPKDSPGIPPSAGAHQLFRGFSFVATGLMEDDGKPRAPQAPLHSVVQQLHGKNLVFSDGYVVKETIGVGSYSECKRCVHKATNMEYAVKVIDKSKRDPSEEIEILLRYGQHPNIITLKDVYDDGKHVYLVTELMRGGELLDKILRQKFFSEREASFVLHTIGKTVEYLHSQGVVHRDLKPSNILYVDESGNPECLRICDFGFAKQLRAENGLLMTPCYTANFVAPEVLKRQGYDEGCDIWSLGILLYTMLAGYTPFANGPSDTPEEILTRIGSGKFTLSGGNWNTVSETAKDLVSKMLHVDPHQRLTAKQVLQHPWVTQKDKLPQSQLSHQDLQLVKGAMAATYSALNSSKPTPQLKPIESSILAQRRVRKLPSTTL
# Summary of the method: as §1
# TBK1 = biological target: T8, TBK1 (Homo sapiens, UniProt Q9UHD2)
# T8 construct: purchased Reaction Biology Corp
# T8 sequence (Q9UHD2 1-729): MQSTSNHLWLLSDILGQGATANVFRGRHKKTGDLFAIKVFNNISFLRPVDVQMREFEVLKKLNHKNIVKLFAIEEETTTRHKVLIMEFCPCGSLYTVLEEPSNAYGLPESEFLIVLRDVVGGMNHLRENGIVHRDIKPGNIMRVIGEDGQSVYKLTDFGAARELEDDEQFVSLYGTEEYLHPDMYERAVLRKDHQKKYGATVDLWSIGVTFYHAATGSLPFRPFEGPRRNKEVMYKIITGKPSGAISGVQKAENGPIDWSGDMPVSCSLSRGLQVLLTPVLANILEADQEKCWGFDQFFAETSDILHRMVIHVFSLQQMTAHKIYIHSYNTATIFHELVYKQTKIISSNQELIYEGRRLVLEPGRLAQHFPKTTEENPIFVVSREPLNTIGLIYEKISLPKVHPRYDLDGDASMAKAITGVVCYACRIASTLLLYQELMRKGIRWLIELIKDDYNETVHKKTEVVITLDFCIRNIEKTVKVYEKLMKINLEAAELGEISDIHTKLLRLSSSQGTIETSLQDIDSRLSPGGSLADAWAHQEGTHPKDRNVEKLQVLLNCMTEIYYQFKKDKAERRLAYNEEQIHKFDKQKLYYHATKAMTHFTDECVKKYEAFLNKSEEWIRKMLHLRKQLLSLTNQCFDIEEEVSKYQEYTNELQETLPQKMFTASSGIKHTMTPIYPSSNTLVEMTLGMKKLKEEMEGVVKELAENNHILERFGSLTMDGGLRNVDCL
# Summary of the method: as §1
# ZIPK/DAPK3 = biological target: T9, ZIPK/DAPK3 (Homo sapiens, UniProt O43293)
# T9 construct: purchased Reaction Biology Corp
# T9 sequence (O43293 whole entry): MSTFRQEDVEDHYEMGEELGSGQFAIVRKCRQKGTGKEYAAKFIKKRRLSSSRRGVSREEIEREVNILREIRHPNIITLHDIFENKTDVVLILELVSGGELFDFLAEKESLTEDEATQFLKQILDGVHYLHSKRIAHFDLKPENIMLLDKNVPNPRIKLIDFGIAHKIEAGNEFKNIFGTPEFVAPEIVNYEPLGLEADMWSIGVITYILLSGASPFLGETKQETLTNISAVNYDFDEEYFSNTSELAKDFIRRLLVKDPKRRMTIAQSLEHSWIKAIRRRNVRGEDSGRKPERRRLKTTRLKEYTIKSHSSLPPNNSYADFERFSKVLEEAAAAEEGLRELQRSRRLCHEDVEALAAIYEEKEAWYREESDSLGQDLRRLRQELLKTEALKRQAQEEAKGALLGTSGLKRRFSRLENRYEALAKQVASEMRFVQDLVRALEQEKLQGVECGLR
# Summary of the method: as §1
# [1] = read-out: % Enzyme Activity (relative to DMSO controls) AVG
# [2] = read-out: % Enzyme Activity (relative to DMSO controls) Data 1
# [3] = read-out: % Enzyme Activity (relative to DMSO controls) Data 2
# T1 sequence (Q13554 whole entry): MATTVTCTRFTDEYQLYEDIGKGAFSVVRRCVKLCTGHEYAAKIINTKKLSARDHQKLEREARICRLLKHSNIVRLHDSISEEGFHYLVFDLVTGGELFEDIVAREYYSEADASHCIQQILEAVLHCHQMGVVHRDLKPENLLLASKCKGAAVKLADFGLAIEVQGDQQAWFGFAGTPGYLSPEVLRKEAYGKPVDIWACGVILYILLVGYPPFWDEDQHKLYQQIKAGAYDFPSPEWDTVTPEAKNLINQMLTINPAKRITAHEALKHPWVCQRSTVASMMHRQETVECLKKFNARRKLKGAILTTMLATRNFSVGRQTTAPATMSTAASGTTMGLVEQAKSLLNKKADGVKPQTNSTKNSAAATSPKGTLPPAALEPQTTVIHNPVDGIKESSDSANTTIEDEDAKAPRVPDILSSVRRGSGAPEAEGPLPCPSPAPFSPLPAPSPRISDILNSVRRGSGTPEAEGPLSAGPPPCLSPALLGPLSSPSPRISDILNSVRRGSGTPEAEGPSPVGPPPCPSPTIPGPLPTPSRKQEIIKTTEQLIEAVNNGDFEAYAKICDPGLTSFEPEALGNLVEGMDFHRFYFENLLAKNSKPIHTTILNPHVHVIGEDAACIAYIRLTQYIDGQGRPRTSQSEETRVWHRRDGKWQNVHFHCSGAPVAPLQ
smiles,measurement,setting,value
CC(C)(C)C(=O)N1N=CC[C@H]1c1ccccc1 [GSK′963],remaining activity at 10 µM,CAMK2b; [1],95.1%
same,remaining activity at 10 µM,CAMK2b; [2],94.1%
same,remaining activity at 10 µM,CAMK2b; [3],96.1%
same,remaining activity at 10 µM,FMS; [1],95%
same,remaining activity at 10 µM,FMS; [2],97.2%
same,remaining activity at 10 µM,FMS; [3],92.8%
same,remaining activity at 10 µM,MARK2/PAR-1Ba; [1],105%
same,remaining activity at 10 µM,MARK2/PAR-1Ba; [2],106%
same,remaining activity at 10 µM,MARK2/PAR-1Ba; [3],104%
same,remaining activity at 10 µM,MINK/MINK1; [1],90.2%
same,remaining activity at 10 µM,MINK/MINK1; [2],89.8%
same,remaining activity at 10 µM,MINK/MINK1; [3],90.6%
same,remaining activity at 10 µM,MYO3b; [1],111%
same,remaining activity at 10 µM,MYO3b; [2],111%
same,remaining activity at 10 µM,MYO3b; [3],111%
same,remaining activity at 10 µM,RIPK2; [1],110%
same,remaining activity at 10 µM,RIPK2; [2],108%
same,remaining activity at 10 µM,RIPK2; [3],112%
same,remaining activity at 10 µM,RSK1; [1],126%
same,remaining activity at 10 µM,RSK1; [2],123%
same,remaining activity at 10 µM,RSK1; [3],128%
same,remaining activity at 10 µM,TBK1; [1],86%
same,remaining activity at 10 µM,TBK1; [2],86.8%
same,remaining activity at 10 µM,TBK1; [3],85.3%
same,remaining activity at 10 µM,ZIPK/DAPK3; [1],111%
same,remaining activity at 10 µM,ZIPK/DAPK3; [2],118%
same,remaining activity at 10 µM,ZIPK/DAPK3; [3],104%
